Data: patent publication US20230203060A1 (GENFLEET THERAPEUTICS (SHANGHAI) INC., priority 2020, published 2023)

Experiments:
[1] = tested on: A549 cells (KRAS G12S mutant); assay: Cell proliferation inhibition experiment, 3D spheroid, CellTiter-Glo, A549; type: cell-based, human; conditions: Homo sapiens, A549, 120 h, A549 (KRAS G12S mutant) 3D spheroid, 5 days with compound, CellTiter-Glo; read-out: A549 IC50
Outline: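 Luminescence (CellTiter-Glo, 30 min incubation) was read after 5 days of compound treatment of overnight-formed spheroids of 800 H358 or 400 A549 cells in 2% FBS medium. Inhibition relative to DMSO and blank controls was fitted with a four-parameter model to yield IC50.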

[2] = tested on: KRAS G12C mutant MIA PaCa-2 cells; assay: Cell proliferation inhibition experiment, 3D spheroid, CellTiter-Glo, MIA PaCa-2; type: cell-based, human; conditions: Homo sapiens, MIA PaCa-2, 120 h, 3D cell model in 384-well spheroid plate, 5 days, CellTiter-Glo; read-out: MIA-PaCa2 IC50
Outline: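 200 MIA PaCa-2 cells/well grown overnight as 3D spheroids, then exposed to 3.16-fold compound dilutions (0.1% DMSO final) for 5 days. Viability read by CellTiter-Glo luminescence; inhibition calculated against DMSO and medium-only controls, and IC50 fitted by four-parameter model.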

IC50 [1] [nM] | IC50 [2] [nM] | SMILES
4030 | 10 | C=CC(=O)N1CCN2C(=O)c3c(N4CC(N(C)CC(F)(F)F)CC4(C)C)nc(-c4ccccc4F)c(Cl)c3OC[C@H]2C1 (mixture of isomers) [Z491a, (6aR)-8-acryloyl-4-chloro-1-(2,2-dimethyl-4-(methyl(2,2,2-trifluoroethyl)amino)pyrrolidin-1-yl)-3-(2-fluorophenyl)-6,6a,7,8,9,10-hexahydro-12H-pyrazino[2,1-c]pyrido[3,4-f][1,4]oxazepin-12-one]
20500 | 34 | C=CC(=O)N1CCN2C(=O)c3c(N4CC(O)CC4(C)C)nc(-c4c(F)cccc4OC)c(F)c3OC[C@H]2C1 (single isomer, unassigned) [Z450]
4530 | 7 | C=CC(=O)N1CCN2C(=O)c3c(N4C[C@@H](N(C)CC(F)(F)F)CC4(C)C)nc(-c4ccccc4F)c(Cl)c3OC[C@H]2C1 (single isomer, unassigned) [Z491]
7240 | 112 | C=CC(=O)N1CCN2C(=O)c3c(N4C[C@H](N(C)CC(F)(F)F)CC4(C)C)nc(-c4ccccc4F)c(Cl)c3OC[C@H]2C1 (single isomer, unassigned) [Z493]
 | > 1000 | C=CC(=O)N1CCN2C(=O)c3c(N4CCN(C)C[C@@H]4C)nc(C#CC)c(Cl)c3OC[C@H]2C1 [Z459, (R)-8-acryloyl-4-chloro-1-((S)-2,4-dimethylpiperazin-1-yl)-3-(prop-1-yn-1-yl)-6,6a,7,8,9,10-hexahydro-12H-pyrazino[2,1-c]pyrido[3,4-f][1,4]oxazepin-12-one]
 | 33 | C=CC(=O)N1CCN2C(=O)c3c(N4CCN(C)C[C@@H]4C)nc(-c4ccccc4Cl)c(Cl)c3OC[C@H]2C1 [Z461, (R)-8-acryloyl-4-chloro-3-(2-chlorophenyl)-1-((S)-2,4-dimethylpiperazin-1-yl)-6,6a,7,8,9,10-hexahydro-12H-pyrazino[2,1-c]pyrido[3,4-f][1,4]oxazepin-12-one]
 | 179 | C=CC(=O)N1CCN2C(=O)c3c(N4C[C@@H](C)N(C)C[C@@H]4C)nc(-c4ccccc4F)c(Cl)c3OC[C@H]2C1 [Z464]
 | 1 | C=CC(=O)N1CCN2C(=O)c3c(N4CC(N5CCN(C)CC5)CC4(C)C)nc(-c4c(O)cccc4F)c(Cl)c3OC[C@H]2C1 (stereo partly drawn) [Z467, (6aR)-8-acryloyl-4-chloro-1-(2,2-dimethyl-4-(4-methylpiperazin-1-yl)pyrrolidin-1-yl)-3-(2-fluoro-6-hydroxyphenyl)-6,6a,7,8,9,10-hexahydro-12H-pyrazino[2,1-c]pyrido[3,4-f][1,4]oxazepin-12-one]
 | 4 | C=CC(=O)N1CCN2C(=O)c3c(N4C[C@@H](O)CC4(C)C)nc(-c4c(N)cccc4F)c(F)c3OC[C@H]2C1 [Z481, (6aR)-8-acryloyl-3-(2-amino-6-fluorophenyl)-4-fluoro-1-((S)-4-hydroxy-2,2-dimethylpyrrolidin-1-yl)-6,6a,7,8,9,10-hexahydro-12H-pyrazino[2,1-c]pyrido[3,4-f][1,4]oxazepin-12-one]
 | 7 | C=CC(=O)N1CCN2C(=O)c3c(N4CCN(C)C[C@@H]4C)nc(-c4c(N)cccc4F)c(Cl)c3OC[C@H]2C1 [Z503, (6aR)-8-acryloyl-3-(2-amino-6-fluorophenyl)-4-chloro-1-((S)-2,4-dimethylpiperazin-1-yl)-6,6a,7,8,9,10-hexahydro-12H-pyrazino[2,1-c]pyrido[3,4-f][1,4]oxazepin-12-one]

More lines, now with the values behind:

SMILES | IC50 [1] [nM] | IC50 [2] [nM]
C=CC(=O)N1CCN2C(=O)c3c(N4C[C@H](N(C)CCOC)CC4(C)C)nc(-c4ccccc4F)c(Cl)c3OC[C@H]2C1 (single isomer, unassigned) [Z406-1] | 2120 | 10
C=CC(=O)N1CCN2C(=O)c3c(N4C[C@@H](O)CC4(C)C)nc(-c4ccccc4F)c(F)c3OC[C@H]2C1 (single isomer, unassigned) [Z408-1] | 9250 | 79.3
C=CC(=O)N1CCN2C(=O)c3c(N4CC(N(C)C)CC4(C)C)nc(-c4ccccc4F)c(Cl)c3OC[C@H]2C1 (single isomer, unassigned) [Z453-2] | 6720 | 45.2
C=CC(=O)N1CCN2C(=O)c3c(N4C[C@@H](N5CCN(C)CC5)CC4(C)C)nc(-c4ccccc4F)c(Cl)c3OC[C@H]2C1 (single isomer, unassigned) [Z454-1] | 2630 | 3.5
C=CC(=O)N1CCN2C(=O)c3c(N4C[C@H](N5CCN(C)CC5)CC4(C)C)nc(-c4ccccc4F)c(Cl)c3OC[C@H]2C1 (single isomer, unassigned) [Z454-2] | 2660 | 16.8
C=CC(=O)N1CCN2C(=O)c3c(N4C[C@@H](C(=O)O)CC4(C)C)nc(-c4c(O)cccc4F)c(Cl)c3OC[C@H]2C1 (single isomer, unassigned) [Z458-1] | > 10000 | > 1000
C=CC(=O)N1CCN2C(=O)c3c(N4CC(N5CCOCC5)CC4(C)C)nc(-c4ccccc4F)c(Cl)c3OC[C@H]2C1 (single isomer, unassigned) [Z468-1] | 3280 | 16
C=CC(=O)N1CCN2C(=O)c3c(N4C[C@@H](N5CCN(C)CC5)CC4(C)C)nc(-c4c(O)cccc4F)c(Cl)c3OC[C@H]2C1 (single isomer, unassigned) [Z469-1] | 5230 | 0.6
C=CC(=O)N1CCN2C(=O)c3c(N4C[C@H](N5CCN(C)CC5)CC4(C)C)nc(-c4c(O)cccc4F)c(Cl)c3OC[C@H]2C1 (single isomer, unassigned) [Z469-2] | 8460 | 4
C=CC(=O)N1CCN2C(=O)c3c(N4C[C@@H](N5CCC5)CC4(C)C)nc(-c4ccccc4F)c(Cl)c3OC[C@H]2C1 (single isomer, unassigned) [Z471-1] | 2770 | 42
C=CC(=O)N1CCN2C(=O)c3c(N4C[C@@H](N(C)C)CC4(C)C)nc(-c4cccc(C)c4F)c(Cl)c3OC[C@H]2C1 (single isomer, unassigned) [Z472-1] | 1740 | 74
C=CC(=O)N1CCN2C(=O)c3c(N4C[C@H](N(C)C)CC4(C)C)nc(-c4cccc(C)c4F)c(Cl)c3OC[C@H]2C1 (single isomer, unassigned) [Z472-2] | 1650 | 53
C=CC(=O)N1CCN2C(=O)c3c(N4CC(N(C)C)CC4(C)C)nc(-c4cccc(F)c4F)c(Cl)c3OC[C@H]2C1 (single isomer, unassigned) [Z473-2] |  | 45
C=CC(=O)N1CCN2C(=O)c3c(N4C[C@@H](N5CCN(C)CC5)CC4(C)C)nc(-c4ccccc4F)c(F)c3OC[C@H]2C1 (single isomer, unassigned) [Z474-1] | 7950 | 13
C=CC(=O)N1CCN2C(=O)c3c(N4C[C@H](N(C)C)CC4(C)C)nc(-c4c(F)ccc(F)c4O)c(Cl)c3OC[C@H]2C1 (single isomer, unassigned) [Z475-2] | 5860 | 15
C=CC(=O)N1CCN2C(=O)c3c(N4C[C@H](N5CC(F)(F)C5)CC4(C)C)nc(-c4ccccc4F)c(Cl)c3OC[C@H]2C1 (single isomer, unassigned) [Z525-1] | 2840 | 478
C=CC(=O)N1CCN2C(=O)c3c(N4C[C@@H](N5CC(F)(F)C5)CC4(C)C)nc(-c4ccccc4F)c(Cl)c3OC[C@H]2C1 (single isomer, unassigned) [Z525-2] | 5740 | 14
C=CC(=O)N1CCN2C(=O)c3c(N4C[C@H](N5CC(C(F)(F)F)C5)CC4(C)C)nc(-c4ccccc4F)c(Cl)c3OC[C@H]2C1 (single isomer, unassigned) [Z608-1] | 2950 | 330
C=CC(=O)N1CCN2C(=O)c3c(N4C[C@@H](N5CCN(C)CC5)CC4(C)C)nc(-c4c(F)cccc4Cl)c(Cl)c3OC[C@H]2C1 (single isomer, unassigned) [Z635-1] | 2280 | 
C=CC(=O)N1CCN2C(=O)c3c(N4C[C@H](N5CCN(C)CC5)CC4(C)C)nc(-c4c(F)cccc4Cl)c(Cl)c3OC[C@H]2C1 (single isomer, unassigned) [Z635-2] | 2970 | 
C=CC(=O)N1CCN2C(=O)c3c(N4C[C@H](N5CC(C#N)C5)CC4(C)C)nc(-c4ccccc4F)c(Cl)c3OC[C@H]2C1 (single isomer, unassigned) [Z637-1] | 2970 | 549
C=CC(=O)N1CCN2C(=O)c3c(N4C[C@@H](N5CC(C#N)C5)CC4(C)C)nc(-c4ccccc4F)c(Cl)c3OC[C@H]2C1 (single isomer, unassigned) [Z637-2] | 2520 | 10
C=CC(=O)N1CCN2C(=O)c3c(N4C[C@@H](N(C)C)CC4(C)C)nc(-c4ccccc4)c(Cl)c3OC[C@H]2C1 (single isomer, unassigned) [Z655-1] | 3320 | 113
C=CC(=O)N1CCN2C(=O)c3c(N4C[C@@H](N(C)CCO)CC4(C)C)nc(-c4ccccc4F)c(Cl)c3OC[C@H]2C1 (single isomer, unassigned) [Z658-1] | 2970 | 
C=CC(=O)N1CCN2C(=O)c3c(N4C[C@H](N(C)CCO)CC4(C)C)nc(-c4ccccc4F)c(Cl)c3OC[C@H]2C1 (single isomer, unassigned) [Z658-2] | 4720 | 31
C=CC(=O)N1CCN2C(=O)c3c(N4C[C@H](N5CCN(C)CC5)C[C@@H]4C)nc(-c4ccccc4F)c(Cl)c3OC[C@H]2C1 [Z470-1] |  | 43
C=CC(=O)N1CCN2C(=O)c3c(N4C[C@@H](N5CC(OC)C5)CC4(C)C)nc(-c4ccccc4F)c(Cl)c3OC[C@H]2C1 [Z479-1, (R)-8-acryloyl-4-chloro-3-(2-fluorophenyl)-1-((S)-4-(3-methoxyazetidin-1-yl)-2,2-dimethylpyrrolidin-1-yl)-6,6a,7,8,9,10-hexahydro-12H-pyrazino[2,1-c]pyrido[3,4-f][1,4]oxazepin-12-one] |  | 15
